{
  "source": "patent US20180105548A1",
  "about": "“A novel compound (KS-513) isolated from Pseudolysimachion rotundum var. subintegrum, the composition comprising the same preventing or treating allergic disease, inflammatory disease, asthma or chronic obstructive pulmonary disease and the use thereof” (priority 2015, published 2018)",
  "key": {"[1]": {"test_system": "NO", "experiment": "NO production in LPS-treated RAW264.7 cell (Griess Reagent)", "format": "cell-based, mouse", "conditions": "for NO production (relative % comparing with LPS treatment group) / NO production, Inhibitory ratio (%): LPS 1 μg/mL, 24 hours", "procedure": "In order to determine the amount of NO reproduction in medium, following test was performed according to the method disclosed in the literature (Ding, A. H., et al., 1988, Release of reactive nitrogen intermediates and reactive oxygen intermediates from mouse peritoneal macrophages, Comparison of activating cytokines and evidence for independent production, Journal of Immunology, 141, pp 2407-2412).\nRAW264.7 cell was inoculated into 96 well plates in the concentration of 1×10^5 cell/well to incubate for 18 hours. Various concentration of KS-513 compound (2.5, 5, 10 and 20 μM) was pre-treated therewith and 1 μg/mL of LPS (L6529, Sigma) was added thereto to incubate for 24 hours. The equivalent amount of Griess Reagent (G4410, Sigma) to the medium was added thereto and reacted at room temperature for 10 mins to determine the absorbance at 540 nm. The level of NO in the medium was determined using by standard curve expressed according to various concentration of sodium nitrite and the result was shown in Table 5 and FIG. 3."}, "[2]": {"test_system": "TNF-alpha", "experiment": "mRNA expression of TNF-alpha in RAW264.7 cell line induced by LPS (real-time PCR)", "format": "cell-based, mouse", "conditions": "for TNF-alpha mRNA expression, Fold (value compared with a negative group) / TNF-alpha mRNA expression, Inhibition ratio (IR) compared with LPS treatment group: LPS 1 μg/ml, 12 hours", "procedure": "(§1) In order to determine the inhibitory effect on the mRNA expression of pro-inflammatory medicated enzyme such as iNOS or COX-2, and pro-inflammatory medicated cytokines such as IL-1beta, IL-6, TNF-alpha in RAW264.7 cell line induced by LPS, following test using by real-time PCR (real-time polymerase chain reaction, quantitative real time polymerase chain reaction, qPCR) was performed according to the method disclosed in the literature (Livak, K. J., Schimittgen T. D., 2001, Analysis of relative gene expression data using real-time quantitiative PCR and the 2 (-Delta Delta C(T) method, Methods 25, p 402-408):\n(§2) RAW264.7 cell was inoculated into 6-well-plates in the concentration of 1×10^6 cell/well to incubate for 12 hours. Various concentration of KS-513 compound (2.5, 5, 10 and 20 μM) was pre-treated therewith and 1 μg/mL of LPS (L6529, Sigma) was added thereto to incubate for 12 hours.\n(§3) To extract total RNA, RNA was extracted using by Triazol B (invitrogen) and cDNA was synthesized using by Omniscript RT kit (205113, Qiagen, Gmbh, Hilden, Germany) after the quantification. The synthesized cDNA was mixed with its template and the primers shown in Table 3 (SEQ.I.D. 1-14), performed to denaturation at 94° C. for 5 mins using by PCR mix (PCR master Mix, Bioneer, Korea), and reacted as follows: 1 cycle for pre-denaturation; at 95° C. for 30 sec, 60° C. for 45 sec, 72° C. for 45 sec, 30 cycles for denaturation; 10 mins at 72° C., 1cycle for final extension. (FIG. 2)"}, "[3]": {"test_system": "iNOS", "experiment": "iNOS protein expression in RAW264.7 cell induced by LPS (Western blot)", "format": "cell-based, mouse", "conditions": "2.5, 5, 10 and 20 μM, LPS 1 μg/mL, 12 hours, FIG. 3A", "procedure": "The expressed level of iNOS in RAW264.7 cell induced by LPS (1 μg/ml) was determined by using Western blot analysis. RAW264.7 cell was inoculated into […] in the concentration of 1×10^6 cell/well to incubate for 12 hours. Various concentration of KS-513 compound (2.5, 5, 10 and 20 μM) was pre-treated therewith and 1 μg/mL of LPS (L6529, Sigma) was added thereto to incubate for 12 hours.\nTo extract protein, after washing the cell with ice-cold PBS three times, lysis buffer (50 mM Tris HCl (pH 8.0), 5 mM EDTA, 150 mM NaCl, 1% NP-40, 0.1% SDS, 1 mM PMSF, and protease inhibitor cocktail tablet (Roche, Germany, 11697498001) was added to the cell, reacted at 4° C. for 30 mins and centrifuged for 10 mins at the speed of 12,000 rpm to collect the supernatant.\nThe equivalent amount of the protein was isolated by SDS-PAGE and the protein was transferred to nitrocellulose membrane (BR162-0145, Bio-Rad). […] The product was reacted with ECL system and the amount of protein was determined by imaging analysis apparatus (LAS-4000, Fujifilm).\nThe quantitative determination of protein was performed by determining the absorbance using assay kit (Bradford protein assay kit, Thermo) at 595 nm and the result was shown in FIG. 3A."}, "[4]": {"experiment": "Acute toxicity test of oral administration in rat", "conditions": "Sprague-Dawley, in vivo", "procedure": "The acute toxicity test was performed by administrating inventive compound to 6-weeks aged SPF Sprague-Dawley rats.\nAfter administrating the extract or compounds, all the clinical changes i.e., mortality, clinical signs, body weight changes was observed and blood test such as haematological test and hematological biochemistry test was performed. The abnormal changes of abdominal organ and thoracic organ were observed after autopsy."}, "[5]": {"test_system": "COX-2", "experiment": "mRNA expression of COX-2 in RAW264.7 cell line induced by LPS (real-time PCR)", "format": "cell-based, mouse", "conditions": "for COX-2 mRNA expression, Fold (value compared with a negative group) / COX-2 mRNA expression, Inhibition ratio (IR) compared with LPS treatment group: LPS 1 μg/ml, 12 hours", "procedure": "as §1, §2, §3"}, "[6]": {"test_system": "IL-6", "experiment": "mRNA expression of IL-6 in RAW264.7 cell line induced by LPS (real-time PCR)", "format": "cell-based, mouse", "conditions": "for IL-6 mRNA expression, Fold (value compared with a negative group) / IL-6 mRNA expression, Inhibition ratio (IR) compared with LPS treatment group: LPS 1 μg/ml, 12 hours", "procedure": "as §1, §2, §3"}, "[7]": {"conditions": "various concentration, compared with control group treated with LPS (100%)"}},
  "data": [
    {"smiles": "CO[C@@H]1C[C@H]2[C@H](OC(=O)c3ccc(O)cc3)[C@@H]3O[C@]3(CO)[C@H]2[C@H](O[C@@H]2O[C@H](CO)[C@@H](O)C(O)[C@H]2O)O1", "note": "(stereo partly drawn) [KS-513, (1aS, 1bS,2S,4S,5aR,6S,6aS)-1a-(hydroxymethyl)-4-methoxy-2-(((2S,3R,5S,6R)-3,4,5-trihydroxy-6-(hydroxymethyl)tetrahydro-2H-pyran-2-yl)oxy)octahydrooxireno[2′,3′:4,5]cyclopenta[1,2-c]pyran-6-yl 4-hydroxybenzoate]", "values": [
      {"measurement": "NO production (relative % comparing with LPS treatment group)", "setting": "[1]; 2.5 μM", "value": "91.89 ± 4.24", "unit": "%"},
      {"measurement": "NO production, Inhibitory ratio (%)", "setting": "[1]; 2.5 μM", "value": 8.21, "unit": "%"},
      {"measurement": "NO production (relative % comparing with LPS treatment group)", "setting": "[1]; 5 μM", "value": "83.69 ± 3.79", "unit": "%"},
      {"measurement": "NO production, Inhibitory ratio (%)", "setting": "[1]; 5 μM", "value": 16.41, "unit": "%"},
      {"measurement": "NO production (relative % comparing with LPS treatment group)", "setting": "[1]; 10 μM", "value": "80.06 ± 2.68", "unit": "%"},
      {"measurement": "NO production, Inhibitory ratio (%)", "setting": "[1]; 10 μM", "value": 20.04, "unit": "%"},
      {"measurement": "NO production (relative % comparing with LPS treatment group)", "setting": "[1]; 20 μM", "value": "72.16 ± 3.57", "unit": "%"},
      {"measurement": "NO production, Inhibitory ratio (%)", "setting": "[1]; 20 μM", "value": 27.94, "unit": "%"},
      {"measurement": "reproduced level of NO", "setting": "[1]; based on LPS treatment (100%)", "value": "reduced in a dose dependent manner"},
      {"measurement": "TNF-alpha mRNA expression, Fold (value compared with a negative group)", "setting": "[2]; 2.5 μM", "value": "9.60 ± 3.33", "unit": "Fold"},
      {"measurement": "TNF-alpha mRNA expression, Inhibition ratio (IR) compared with LPS treatment group", "setting": "[2]; 2.5 μM", "value": 14.34, "unit": "%"},
      {"measurement": "TNF-alpha mRNA expression, Fold (value compared with a negative group)", "setting": "[2]; 5 μM", "value": "5.34 ± 3.27", "unit": "Fold"},
      {"measurement": "TNF-alpha mRNA expression, Inhibition ratio (IR) compared with LPS treatment group", "setting": "[2]; 5 μM", "value": 52.39, "unit": "%"},
      {"measurement": "TNF-alpha mRNA expression, Fold (value compared with a negative group)", "setting": "[2]; 10 μM", "value": "2.72 ± 0.99", "unit": "Fold"},
      {"measurement": "TNF-alpha mRNA expression, Inhibition ratio (IR) compared with LPS treatment group", "setting": "[2]; 10 μM", "value": 75.69, "unit": "%"},
      {"measurement": "TNF-alpha mRNA expression, Fold (value compared with a negative group)", "setting": "[2]; 20 μM", "value": "1.49 ± 0.77", "unit": "Fold"},
      {"measurement": "TNF-alpha mRNA expression, Inhibition ratio (IR) compared with LPS treatment group", "setting": "[2]; 20 μM", "value": 86.70, "unit": "%"},
      {"measurement": "expressed level of mRNA of TNF-alpha", "setting": "[2]; [7]", "value": "significantly decreased in a dose dependent manner"},
      {"measurement": "expressed level of iNOS protein", "setting": "[3]", "value": "reduced in a dose dependent manner"},
      {"measurement": "LD50 at 14 days", "setting": "[4]", "value": "> 5000", "unit": "mg/kg"},
      {"measurement": "COX-2 mRNA expression, Fold (value compared with a negative group)", "setting": "[5]; 2.5 μM", "value": "4.72 ± 0.21", "unit": "Fold"},
      {"measurement": "COX-2 mRNA expression, Inhibition ratio (IR) compared with LPS treatment group", "setting": "[5]; 2.5 μM", "value": 39.91, "unit": "%"},
      {"measurement": "COX-2 mRNA expression, Fold (value compared with a negative group)", "setting": "[5]; 5 μM", "value": "2.64 ± 0.15", "unit": "Fold"},
      {"measurement": "COX-2 mRNA expression, Inhibition ratio (IR) compared with LPS treatment group", "setting": "[5]; 5 μM", "value": 66.40, "unit": "%"},
      {"measurement": "COX-2 mRNA expression, Fold (value compared with a negative group)", "setting": "[5]; 10 μM", "value": "1.43 ± 0.50", "unit": "Fold"},
      {"measurement": "COX-2 mRNA expression, Inhibition ratio (IR) compared with LPS treatment group", "setting": "[5]; 10 μM", "value": 81.81, "unit": "%"},
      {"measurement": "COX-2 mRNA expression, Fold (value compared with a negative group)", "setting": "[5]; 20 μM", "value": "0.97 ± 0.38", "unit": "Fold"},
      {"measurement": "COX-2 mRNA expression, Inhibition ratio (IR) compared with LPS treatment group", "setting": "[5]; 20 μM", "value": 87.66, "unit": "%"},
      {"measurement": "expressed level of mRNA of COX-2", "setting": "[5]; [7]", "value": "significantly decreased in a dose dependent manner"},
      {"measurement": "IL-6 mRNA expression, Fold (value compared with a negative group)", "setting": "[6]; 2.5 μM", "value": "24.73 ± 2.26", "unit": "Fold"},
      {"measurement": "IL-6 mRNA expression, Inhibition ratio (IR) compared with LPS treatment group", "setting": "[6]; 2.5 μM", "value": 20.62, "unit": "%"},
      {"measurement": "IL-6 mRNA expression, Fold (value compared with a negative group)", "setting": "[6]; 5 μM", "value": "14.24 ± 1.44", "unit": "Fold"},
      {"measurement": "IL-6 mRNA expression, Inhibition ratio (IR) compared with LPS treatment group", "setting": "[6]; 5 μM", "value": 54.30, "unit": "%"},
      {"measurement": "IL-6 mRNA expression, Fold (value compared with a negative group)", "setting": "[6]; 10 μM", "value": "8.57 ± 1.23", "unit": "Fold"},
      {"measurement": "IL-6 mRNA expression, Inhibition ratio (IR) compared with LPS treatment group", "setting": "[6]; 10 μM", "value": 72.50, "unit": "%"},
      {"measurement": "IL-6 mRNA expression, Fold (value compared with a negative group)", "setting": "[6]; 20 μM", "value": "2.35 ± 0.81", "unit": "Fold"},
      {"measurement": "IL-6 mRNA expression, Inhibition ratio (IR) compared with LPS treatment group", "setting": "[6]; 20 μM", "value": 92.46, "unit": "%"},
      {"measurement": "expressed level of mRNA of IL-6", "setting": "[6]; [7]", "value": "significantly decreased in a dose dependent manner"}
    ]}
  ]
}
